According to patent US20160296536A1, “Administration of Glucocorticoid Steroids to Livestock” (Animal Biotech, LLC, priority 2015, published 2016):

What was measured:
[1] = Example 2: body mass, daily gain, feed intake and gain-to-feed of weaned gilts; type: in vivo, piglets; conditions: weaned pigs; 0.2 mg/kg intramuscular
Method: In this test, eighteen gilts (of commercially relevant genetics) were weaned at 23±2 days of age. These were housed in floor pens (3 pigs per pen), and assigned to 3 treatments: (1) unweaned suckling that received saline but no cortisol agonist (UWS), (2) weaning that received only saline (WS), and (3) weaning that received the cortisol agonist (WC). The piglets of Group (3) received a cortisol agonist (0.2 mg dexamethasone per kg of body mass) via intramuscular injection on the day before commencing weaning, and day 3 post-weaning. Those of Groups (1) and (2) received instead only a saline solution intra-muscular injection at the same time intervals. Body mass (BW) was monitored daily, and average daily mass gain (ADG) and mass of feed intake (ADFI) were measured and/or estimated for the course of the study. […] Data was analyzed using mixed procedures in SAS (PROC MIXED). Repeated measure analysis of variance was used for the parameters that were measured over time.

[2] = Example 1: body weight and feed efficiency of piglets treated before weaning; type: in vivo; conditions: for improvement of (average) body weight: gilts (female pigs), intramuscular; for improvement of (average) body weight / higher body weight relative to control animals: P<0.01; for higher body weight than the controls at day 35 of the study: P<0.05; for higher body weight relative to control animals: MET fed orally one week before and 24 hours before weaning
From the text: (§1) In a study, a total of 64 piglets (32 gilts [females] and 32 barrows [castrated males]) with initial body weight (BW) of 4.8±0.7 Kg were assigned to four treatments. Treatments were in a 4×2 factorial arrangement with a completely randomized design with two main factors: (I) control (Con), two levels of cortisol agonist (Dexamethasone; DEX; subdivided into 2 dosage levels: DEXA and DEXB), or cortisol antagonist (Metyrapone; MET), and (II) gender (gilt vs. barrow). See Table at FIG. 9, for a summary of the list of the treatments, drug dosage, and number of the animals per treatment. Dexamethasone was injected intramuscular at dosages shown, while Metyrapone was mixed with applesauce and fed to the animals with a syringe. The study lasted for 5 weeks. It began one week before weaning (14-day old piglets), and continued 4 weeks after the weaning. Pigs were weaned at the age of 21-days. Piglets received the treatments either orally via diet or by intra-muscular injection one week before and again 24 hours before weaning. Blood samples were collected by venipuncture of the jugular vein on day 14, 20, 21, 22, 23, 24, 26, 28, and 35 of age. Serum cortisol was determined using a commercial kit. Feed intake, average daily gain, feed efficiency, and mortality/morbidity was determined. Body weights (body mass) of the animals were measured on a daily basis for a week after weaning, and then on a weekly basis until the end of the study. See, FIGS. 2 and 3.

[3] = Example 1: serum cortisol in piglet blood samples (commercial kit); type: in vivo, piglets; conditions: 24 h after weaning; P>0.05
From the text: as §1, with “Blood samples were collected by venipuncture of the jugular vein on day 14, 20, 21, 22, 23, 24, 26, 28, and 35 of age.” left out, “See, FIGS. 2 and 3.” left out

Row | SMILES | effect on ADFI (mass of feed intake) [1] | effect on ADG (average daily mass gain) [1] | effect on body weight ([2]; barrows, anti-inflammatory dose, P>0.05) | improvement of (average) body weight ([2]; DEXA dose (anti-inflammatory)) [%] | improvement of (average) body weight ([2]; DEXB dose (immunosuppressive)) [%] | improvement of (average) body weight ([2]; DEXB dose (immunosuppressive), listed as dexamethasone) [%] | higher body weight than the controls at day 35 of the study ([2]; gilts, DEXA dose, day 35) [%] | higher body weight than the controls at day 35 of the study ([2]; gilts, DEXB dose, day 35) [%] | effect on serum cortisol levels [3] | increase of average body weight of the piglets ([2]; all piglets, average over the course of the study) [%] | higher body weight relative to control animals ([2]; barrows) [%] | effect on body weight of piglets at day 35 of the study ([2]; day 35) | higher body weight relative to control animals ([2]; gilts) [%]
1 | C[C@@H]1C[C@H]2[C@@H]3CCC4=CC(=O)C=C[C@]4(C)[C@@]3(F)[C@@H](O)C[C@]2(C)[C@@]1(O)C(=O)CO [Dexamethasone] | no effect | no effect | no effect | 9.3 | 4.1 | 4.4 | 13 | 12 |  |  |  |  | 
2 | CC(C)(C(=O)c1cccnc1)c1cccnc1 [MET, Metyrapone] |  |  |  |  |  |  |  |  | Neither MET nor DEX had an effect | 3.4 | 3 | no effect | 4
